In brackets after ≈: the same amount, converted by molar mass. Entries after “also recorded” stand apart in the source; their conditions may differ.
Experiments:
[1] = tested on: N. gonorrhoeae FA1090E (GyrA^WT/ParC^WT, efflux mutant); test: MIC by agar dilution, WT/WT efflux-mutant parental strain; type: cell-based; conditions: Neisseria gonorrhoeae, 48 h
Method: Mutations in these efflux genes can result in increased efflux to multiple antibiotics. […] Parental and isogenic mutant strains generated that carried the efflux mutations mtrR-79 and norM ΔT T6 were designated as FA1090E (E for efflux positive). Only the additional GyrA and ParC genotypes are described in Table and in the text. The mutant that additionally expressed ParC^D86N was named FA1090E-2.
(§1) Minimum inhibitory concentration (MIC) of test compounds was determined by an agar dilution method, the reference testing method for N. gonorrhoeae according to the standards of the Clinical and Laboratory Standards Institute and the CDC.

[2] = tested on: N. gonorrhoeae FA1090E-1 (GyrA^A92T/ParC^WT); test: MIC by agar dilution, GyrA^A92T strain; type: cell-based; conditions: Neisseria gonorrhoeae
Method: The purified isolate was confirmed to harbor GyrA^A92T as the single target mutation by DNA sequencing. This strain was designated FA1090E-1 (GyrA^A92T).
as §1

[3] = tested on: N. gonorrhoeae FA1090E-5 (GyrA^D90N/ParC^D86N); test: MIC by agar dilution, GyrA^D90N/ParC^D86N strain; type: cell-based, Neisseria gonorrhoeae
Method: This strain was designated FA1090E-5 (GyrA^D90N/ParC^D86N).
as §1

[4] = tested on: N. gonorrhoeae FA1090 (ATCC 700825); test: MIC by agar dilution, parental strain FA1090; type: cell-based; conditions: Neisseria gonorrhoeae, ATCC700825, parental strain FA1090, GyrA WT / ParC WT
Method: A series of isogenic N. gonorrhoeae strains was constructed that carried the specific target mutations GyrA^A92T or GyrA^D90N either alone or in combination with ParC^D86N or GyrA^S91F/D95G in a ciprofloxacin-susceptible strain, FA1090 (ATCC 700825).
All N. gonorrhoeae isolates were cultured and grown on GC agar plates or in fastidious broth (Remel, 07664). Minimum inhibitory concentration (MIC) of test compounds was determined by an agar dilution method, the reference testing method for N. gonorrhoeae according to the standards of the Clinical and Laboratory Standards Institute and the CDC. MIC values were determined after incubation at 37 °C for 48 h in 5% CO2.

[5] = target: T1, N. gonorrhoeae gyrase GyrA^A92T (Neisseria gonorrhoeae, UniProt P48371, A92T); test: Gyrase-catalyzed DNA supercoiling assay, GyrA^A92T; type: biochemical
T1 construct: His; made in house
T1 sequence (P48371 whole entry A92T): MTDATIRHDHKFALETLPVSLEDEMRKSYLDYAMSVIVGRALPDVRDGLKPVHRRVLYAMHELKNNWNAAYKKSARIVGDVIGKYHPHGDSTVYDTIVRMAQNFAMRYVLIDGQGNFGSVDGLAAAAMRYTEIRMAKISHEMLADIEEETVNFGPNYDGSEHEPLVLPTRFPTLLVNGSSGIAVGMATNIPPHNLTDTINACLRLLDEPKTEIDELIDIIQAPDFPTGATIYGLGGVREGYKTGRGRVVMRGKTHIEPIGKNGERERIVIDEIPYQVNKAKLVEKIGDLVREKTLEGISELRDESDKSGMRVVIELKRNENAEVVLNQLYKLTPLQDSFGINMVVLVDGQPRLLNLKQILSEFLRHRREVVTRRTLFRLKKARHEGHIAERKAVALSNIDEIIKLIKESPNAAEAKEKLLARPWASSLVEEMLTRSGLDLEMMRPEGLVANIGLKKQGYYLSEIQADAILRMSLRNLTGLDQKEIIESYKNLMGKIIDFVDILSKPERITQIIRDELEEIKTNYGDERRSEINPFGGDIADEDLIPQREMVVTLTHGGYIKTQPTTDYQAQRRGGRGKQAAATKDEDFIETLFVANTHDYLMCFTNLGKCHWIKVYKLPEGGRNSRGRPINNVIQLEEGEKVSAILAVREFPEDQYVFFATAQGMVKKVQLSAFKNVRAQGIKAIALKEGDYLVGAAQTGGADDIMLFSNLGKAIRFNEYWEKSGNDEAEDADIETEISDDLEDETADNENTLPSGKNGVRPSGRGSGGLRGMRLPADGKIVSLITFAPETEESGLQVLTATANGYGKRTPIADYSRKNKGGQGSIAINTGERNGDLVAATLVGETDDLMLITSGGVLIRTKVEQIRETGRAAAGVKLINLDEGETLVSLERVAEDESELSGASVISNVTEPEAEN
T1 sequence (P22118 whole entry partner): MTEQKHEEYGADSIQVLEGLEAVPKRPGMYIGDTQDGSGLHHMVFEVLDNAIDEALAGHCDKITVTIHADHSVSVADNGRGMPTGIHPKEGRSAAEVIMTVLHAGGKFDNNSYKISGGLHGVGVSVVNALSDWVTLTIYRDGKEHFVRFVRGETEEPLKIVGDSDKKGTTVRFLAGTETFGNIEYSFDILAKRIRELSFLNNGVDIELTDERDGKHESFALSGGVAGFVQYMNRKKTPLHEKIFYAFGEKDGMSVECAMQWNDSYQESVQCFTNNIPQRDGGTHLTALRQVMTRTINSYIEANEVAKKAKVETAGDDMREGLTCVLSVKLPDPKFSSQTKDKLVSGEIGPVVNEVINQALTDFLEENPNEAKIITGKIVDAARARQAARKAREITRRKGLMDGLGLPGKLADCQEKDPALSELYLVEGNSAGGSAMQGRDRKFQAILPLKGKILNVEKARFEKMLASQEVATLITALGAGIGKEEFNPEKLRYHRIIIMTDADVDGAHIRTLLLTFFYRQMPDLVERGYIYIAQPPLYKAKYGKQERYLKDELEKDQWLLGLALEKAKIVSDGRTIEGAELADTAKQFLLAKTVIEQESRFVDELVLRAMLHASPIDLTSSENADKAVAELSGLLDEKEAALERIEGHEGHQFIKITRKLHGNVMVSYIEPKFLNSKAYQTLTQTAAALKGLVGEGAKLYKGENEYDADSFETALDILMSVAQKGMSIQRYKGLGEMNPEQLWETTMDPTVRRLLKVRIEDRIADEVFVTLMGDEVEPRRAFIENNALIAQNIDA
Method: (§2) All proteins were His-tagged. N. gonorrhoeae WT gyrase (GyrA, GyrB) and topoisomerase IV (ParC, ParE) subunits as well as mutant GyrA^D90N, GyrA^A92T, GyrA^S91F, and GyrA^S91F/D95G gyrase and ParC^D86N and ParC^S88P topoisomerase IV were prepared as described previously. , N. gonorrhoeae mutant GyrA^D95G gyrase and mutant ParC^S87N and ParC^E91G topoisomerase IV were generated using a QuickChange II XL site-directed mutagenesis kit (Agilent Technologies) with custom primers for the desired mutations. […] The identities of all constructs were confirmed by DNA sequencing, and all enzymes were stored at −80 °C. In all assays, N. gonorrhoeae gyrase or topoisomerase IV was used as a 1:1 GyrA:GyrB or ParC:ParE mixture, respectively, and the stated enzyme concentration reflects that of the holoenzyme (A2B2).
(§3) Samples were mixed with 2 μL of loading dye [60% sucrose, 10 mM Tris–HCl (pH 7.9), 0.5% bromophenol blue, and 0.5% xylene cyanol FF] and incubated at 45 °C for 2 min before being subjected to electrophoresis on 1% agarose gels in 100 mM Tris-borate (pH 8.3) and 2 mM EDTA. […] DNA bands were visualized with medium-range ultraviolet light and quantified using an Alpha Innotech digital imaging system (Protein Simple). DNA supercoiling was monitored by the conversion of relaxed to supercoiled plasmid.

[6] = target: T2, N. gonorrhoeae gyrase GyrA^S91F/D95G (Neisseria gonorrhoeae, UniProt P48371, D95G/S91F); test: Gyrase-catalyzed DNA supercoiling assay, GyrA^S91F/D95G; type: biochemical; conditions: read-out: IC50, inhibition of DNA supercoiling
T2 construct: His; made in house
T2 sequence (P48371 whole entry S91F/D95G): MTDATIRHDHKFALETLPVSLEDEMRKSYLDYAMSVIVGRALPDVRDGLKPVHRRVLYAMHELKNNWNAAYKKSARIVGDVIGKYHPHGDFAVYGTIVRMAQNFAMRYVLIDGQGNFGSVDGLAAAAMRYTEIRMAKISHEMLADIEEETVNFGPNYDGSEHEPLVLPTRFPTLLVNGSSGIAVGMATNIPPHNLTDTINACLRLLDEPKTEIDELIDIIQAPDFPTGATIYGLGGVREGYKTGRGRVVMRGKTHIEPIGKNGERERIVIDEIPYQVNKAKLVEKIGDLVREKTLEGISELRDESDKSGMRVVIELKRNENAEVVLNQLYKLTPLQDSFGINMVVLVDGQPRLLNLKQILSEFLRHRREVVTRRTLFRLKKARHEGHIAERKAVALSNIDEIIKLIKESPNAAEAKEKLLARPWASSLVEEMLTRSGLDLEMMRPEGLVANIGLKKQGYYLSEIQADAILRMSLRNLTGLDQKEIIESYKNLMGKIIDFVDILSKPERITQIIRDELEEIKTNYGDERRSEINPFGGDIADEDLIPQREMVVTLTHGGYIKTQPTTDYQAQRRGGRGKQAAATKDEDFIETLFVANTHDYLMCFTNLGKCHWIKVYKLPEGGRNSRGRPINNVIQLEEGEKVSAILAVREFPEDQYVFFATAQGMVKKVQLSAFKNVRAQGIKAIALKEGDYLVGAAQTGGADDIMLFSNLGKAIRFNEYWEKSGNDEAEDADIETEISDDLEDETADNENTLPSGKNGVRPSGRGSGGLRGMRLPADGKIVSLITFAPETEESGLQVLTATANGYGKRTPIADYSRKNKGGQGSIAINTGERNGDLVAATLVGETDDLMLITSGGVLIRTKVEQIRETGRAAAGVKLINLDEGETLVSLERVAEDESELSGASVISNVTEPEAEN
T2 sequence (P22118 whole entry partner): as the sequence (P22118 whole entry partner) above
Method: as §2, §3

[7] = target: T3, N. gonorrhoeae gyrase GyrA^D90N (Neisseria gonorrhoeae, UniProt P48371, D90N); test: DNA cleavage assay, GyrA^D90N gyrase; type: biochemical
T3 construct: His; made in house
Method: (§4) Some experiments replaced MgCl2 with an equivalent concentration of CaCl2 (10 mM), or 1.5 mM ATP was added to assay mixtures.
(§5) Reactions were incubated at 37 °C for 30 min with WT and mutant (GyrA^D90N, GyrA^A92T, GyrA^S91F, GyrA^D95G, or GyrA^S91F/D95G) N. gonorrhoeae gyrase, 10 min with WT N. gonorrhoeae topoisomerase IV, and 20 min with mutant (ParC^D86N, ParC^S88P, ParC^S87N, or ParC^E91G) N. gonorrhoeae topoisomerase IV. Enzyme-DNA cleavage complexes were trapped by adding 2 μL of 5% SDS followed by 2 μL of 250 mM EDTA (pH 8.0). Proteinase K was added (2 μL of a 0.8 mg/mL solution), and reaction mixtures were incubated at 45 °C for 30 min to digest the enzyme. Samples were mixed with 2 μL of loading buffer and heated at 45 °C for 2 min prior to electrophoresis in 1% agarose gels in 40 mM Tris-acetate (pH 8.3), and 2 mM EDTA containing 0.5 μg/mL ethidium bromide. DNA bands were visualized by midrange ultraviolet light and quantified using an Alpha Innotech digital imaging system (Protein Simple). Single-stranded DNA cleavage was monitored by the conversion of negatively supercoiled to nicked plasmid molecules.

[8] = target: T2, N. gonorrhoeae gyrase GyrA^S91F/D95G; test: DNA cleavage assay, GyrA^S91F/D95G gyrase; type: biochemical
Method: as §4, §5

[9] = tested on: uncomplicated urogenital gonorrhea; parameters: method as in recent phase III clinical trial; conditions: vs intramuscular ceftriaxone plus oral azithromycin, ref recent phase III clinical trial; cited from earlier work

## O=c1ccc2ncc(=O)n3c2n1C[C@H]3CN1CCC(NCc2cc3c(cn2)OCCC3)CC1 [gepotidacin]
[1]
  MIC: 0.5 µg/mL (≈ 1.11 µM)
[2]
  MIC: 2 µg/mL (≈ 4.46 µM)
[3]; Neisseria gonorrhoeae
  MIC: > 64 µg/mL
[3]; strain FA1090E-5 vs FA1090E
  fold-change in MIC from WT/WT parental strain: > 128 fold
[4]
  MIC: 0.125 µg/mL
[5]; GyrA A92T gyrase, read-out: IC50, inhibition of DNA supercoiling
  IC50: 8.5 ± 2.1 µM
[5]; GyrA A92T vs WT
  fold increase of supercoiling IC50 vs WT gyrase: ~1.7 fold
[6]
  IC50: 3.6 ± 2.4 µM
[7]
  Adj-Max Cleavage, single-stranded DNA breaks: 1.7%
[7]; GyrA D90N gyrase
  increase in gepotidacin-induced DNA cleavage: essentially no increase
[8]
  Adj-Max Cleavage, single-stranded DNA breaks: 3.9%
[8]; GyrA S91F/D95G gyrase, read-out: CC50, single-stranded DNA cleavage
  EC50: 800 nM
[8]; GyrA S91F/D95G vs WT
  fold decrease of adjusted maximal DNA cleavage vs WT: ~4.4 fold
[9]
  outcome of phase III clinical trial: met its primary efficacy end point; also recorded: noninferiority

Source: paper PMC12624743 (ACS Infectious Diseases, 2025)
